A word on the EC50: it is the concentration needed to bring the measured effect to its halfway point. Broadly, the IC50 is the concentration that inhibits the measured activity by half. Low readings indicate greater potency, high ones weaker potency.

Holding throughout (type): biochemical
Assay [1] addresses T1, Nape-pld (Mus musculus, UniProt Q8BH82). The assay is described as follows: fluorogenic PED-A1 hydrolysis assay, activation. The conditions noted are these: read-out: EC50 μM^b (95% CI).
The target in assay [2] is T1, Nape-pld. The assay is described as follows: fluorogenic PED-A1 hydrolysis assay, activation. The conditions noted are these: read-out: EC50 μM^b (95% CI). This is another data set of the same source.
Assay [3] deals with NAPE-PLD (Homo sapiens, UniProt Q6IQ20). The assay is described as follows: recombinant human enzyme, PED-A1 fluorogenic assay, activation.
NAPE-PLD, sequence (Q6IQ20 whole entry): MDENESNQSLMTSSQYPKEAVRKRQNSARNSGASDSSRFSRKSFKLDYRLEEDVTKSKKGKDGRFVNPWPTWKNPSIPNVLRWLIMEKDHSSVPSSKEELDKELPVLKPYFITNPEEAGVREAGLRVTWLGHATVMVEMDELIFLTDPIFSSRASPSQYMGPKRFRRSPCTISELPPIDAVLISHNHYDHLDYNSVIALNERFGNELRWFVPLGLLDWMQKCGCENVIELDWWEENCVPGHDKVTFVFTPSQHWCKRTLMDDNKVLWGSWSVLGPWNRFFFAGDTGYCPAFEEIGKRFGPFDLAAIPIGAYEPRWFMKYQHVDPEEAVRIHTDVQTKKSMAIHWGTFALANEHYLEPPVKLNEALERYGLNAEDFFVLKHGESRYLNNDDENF
For assay [4], the target named is T2, soluble epoxide hydrolase (sEH) (Homo sapiens, UniProt P34913).
T2 sequence (P34913 1-555): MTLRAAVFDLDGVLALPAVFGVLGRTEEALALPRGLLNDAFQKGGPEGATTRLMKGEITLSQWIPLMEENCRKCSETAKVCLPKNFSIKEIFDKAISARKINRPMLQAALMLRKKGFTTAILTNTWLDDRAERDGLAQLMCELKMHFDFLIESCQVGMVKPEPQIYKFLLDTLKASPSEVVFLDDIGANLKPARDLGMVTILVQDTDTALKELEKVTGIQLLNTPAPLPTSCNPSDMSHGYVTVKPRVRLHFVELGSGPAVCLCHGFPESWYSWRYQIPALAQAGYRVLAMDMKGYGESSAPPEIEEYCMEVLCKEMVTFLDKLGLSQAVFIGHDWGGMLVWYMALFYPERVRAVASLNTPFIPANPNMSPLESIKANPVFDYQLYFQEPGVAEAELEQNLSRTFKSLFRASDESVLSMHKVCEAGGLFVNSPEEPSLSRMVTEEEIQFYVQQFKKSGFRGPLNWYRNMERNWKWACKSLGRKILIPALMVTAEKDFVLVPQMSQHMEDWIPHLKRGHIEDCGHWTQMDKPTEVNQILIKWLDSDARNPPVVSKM
The assay is described as follows: sEH activity assay kit.

Assay [5] deals with T1, Nape-pld. The assay is described as follows: fluorogenic PED-A1 hydrolysis assay, activation. Conditions: read-out: EC50 μM^b (95% CI). The source holds these as a separate data set.

Where two headings read alike, the source gives them in different places.

T1 sequence (Q8BH82 whole entry): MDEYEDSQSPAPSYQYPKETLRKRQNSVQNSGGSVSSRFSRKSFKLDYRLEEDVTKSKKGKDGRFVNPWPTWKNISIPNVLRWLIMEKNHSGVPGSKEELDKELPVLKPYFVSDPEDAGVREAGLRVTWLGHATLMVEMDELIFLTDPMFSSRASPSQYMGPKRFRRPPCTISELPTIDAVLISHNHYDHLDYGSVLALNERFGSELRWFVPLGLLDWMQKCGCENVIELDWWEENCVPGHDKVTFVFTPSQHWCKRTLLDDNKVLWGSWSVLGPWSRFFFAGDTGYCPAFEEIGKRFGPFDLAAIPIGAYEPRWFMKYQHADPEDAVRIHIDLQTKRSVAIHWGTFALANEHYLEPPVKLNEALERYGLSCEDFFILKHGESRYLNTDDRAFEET

In the case of `Cc1ccc2nc(NC(=O)C3CCN(S(=O)(=O)c4ccc(Cl)cc4)CC3)sc2c1` [compound 5, VU539], the EC50 in assay [1] amounted to 0.74 µM.
Regarding `Cc1ccc2nc(NC(=O)C3CCN(S(=O)(=O)c4ccc(F)cc4)CC3)sc2c1` [compound 3, VU486], the EC50 in assay [1] stood at 0.32 µM.
`Cc1ccc(C)c2sc(NC(=O)C3CCN(S(=O)(=O)c4ccc(F)cc4)CC3)nc12` [compound 9, VU533]: the EC50 in assay [2] is 0.3 µM; in assay [3], 200 nM.
On to `Cc1cc(C)c2sc(NC(=O)C3CCN(S(=O)(=O)c4ccc(F)cc4)CC3)nc2c1` [compound 8, VU534], for which the half-inhibitory concentration (IC50) in assay [4] came out at 1200 nM. For the same molecule, the 50% effective concentration (EC50) in assay [5] was found to be 0.3 µM; in assay [3], 930 nM.
